How the values were obtained:
Format in all cases: biochemical
JAK1 = JAK1 (Homo sapiens, UniProt P23458); experiment: experiment of inhibiting kinase activity (Caliper mobility shift assay), JAK1; conditions: read-out: inhibition rate JAK1; for inhibition at 0.1 µM: at 100 nM
Procedure, shortened: (§1)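 Inhibition is measured as reduced conversion of substrate by the kinase, separated by microfluidic mobility shift after a room-temperature reaction started with ATP/substrate following a 10-min compound preincubation. Test doses are 10 nM, 100 nM, or a 10-point 3-fold series from 10 µM.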

TYK2 = TYK2 (Homo sapiens, UniProt P29597); experiment: experiment of inhibiting kinase activity, TYK2; conditions: read-out: inhibition rate TYK2; for inhibition at 0.1 µM: at 100 nM
Method: (§2) The inhibition rates of tested compounds on JAK1, JAK2, JAK3, TYK2, CDK7, CDK9, EGFR (T790M) and LRRK2 kinases were measured. The test concentrations of the compounds were 10 nM and 100 nM, and the detection was performed by replicate wells. Alternatively, compounds were 3-fold serial diluted from 10 µM for 10 concentrations in replicate wells.

JAK2 = JAK2 (Homo sapiens, UniProt O60674); experiment: experiment of inhibiting kinase activity (Caliper mobility shift assay), JAK2; conditions: read-out: inhibition rate JAK2; for inhibition at 0.01 µM: at 10 nM; for inhibition at 0.1 µM: at 100 nM
Procedure, shortened: as §1

CDK9 = CDK9 (Homo sapiens, UniProt P50750); experiment: experiment of inhibiting kinase activity (Caliper mobility shift assay), CDK9; conditions: at 100 nM; read-out: inhibition rate CDK9
Method: as §2
The inhibitory effects of the compounds on JAK1, JAK2, JAK3, CDK7 and CDK9 kinases were detected by the method of Caliper mobility shift assay. 250 nL of the compound at 100-fold final concentration was transferred to a destination plate 384-well-plate by using a liquid handler Echo 550. A kinase solution at 2.5-fold final concentration was prepared with 1×kinase buffer. 10 µL of the kinase solution with 2.5-fold final concentration was added to compound wells and positive control wells; and 10 µL of 1×kinase buffer was added to negative control wells. The mixture was centrifuged at 1000 rpm for 30 seconds and then incubated at room temperature for 10 minutes. A mixed solution of ATP and kinase substrate at 5/3-fold final concentration was prepared with 1×kinase buffer, and 15 µL of the mixed solution of ATP and substrate at 5/3-fold final concentration was added to start the reaction. The 384-well plate was centrifuged at 1000 rpm for 30 seconds, shaked and mixed evenly, then incubated at room temperature for a corresponding time. 30 µL of stop solution was added to stop the kinase reaction, the mixture was centrifuged at 1000 rpm for 30 seconds, and shaked and mixed evenly. The conversion rate was read by Caliper EZ Reader. The conversion inhibition rate%=(average positive control conversion rate%-sample conversion rate%)/(average positive control conversion rate%-average negative control conversion rate%). Where negative control wells represent the conversion readings of the background well of kinase buffer; and positive control wells represent the conversion readings of wells without compound inhibition. With the log value of concentration as the x axis and the percentage inhibition rate as the y axis, the dose-response curve was fitted by the log (inhibitor) vs. response-variable slope of the analyzing softwar GraphPad Prism 5, and the IC50 values of each compound on enzyme activity were obtained. Calculation formula is as follows: y=Bottom+(Top-Bottom)/(1+10^((LogIC50-x)×hillslope)), where x is logarithm of inhibitor concentration; and Y is % inhibition rate.

CDK7 = CDK7 (Homo sapiens, UniProt P50613); experiment: experiment of inhibiting kinase activity (Caliper mobility shift assay), CDK7; conditions: read-out: inhibition rate CDK7; for inhibition at 0.01 µM: at 10 nM; for inhibition at 0.1 µM: at 100 nM
Procedure, shortened: as §1

LRRK2 = LRRK2 (Homo sapiens, UniProt Q5S007); experiment: experiment of inhibiting kinase activity, LRRK2; conditions: for inhibition at 0.01 µM: at 10 nM; for inhibition at 0.01 µM / inhibition at 0.1 µM: read-out: inhibition rate LRRK2; for inhibition at 0.1 µM: at 100 nM
Method: as §2

JAK3 = biological target: T1, JAK3 (Homo sapiens, UniProt P52333); experiment: experiment of inhibiting kinase activity (Caliper mobility shift assay), JAK3; conditions: read-out: inhibition rate JAK3; for inhibition at 0.01 µM: at 10 nM; for inhibition at 0.1 µM: at 100 nM
T1 sequence (P52333 1-1124): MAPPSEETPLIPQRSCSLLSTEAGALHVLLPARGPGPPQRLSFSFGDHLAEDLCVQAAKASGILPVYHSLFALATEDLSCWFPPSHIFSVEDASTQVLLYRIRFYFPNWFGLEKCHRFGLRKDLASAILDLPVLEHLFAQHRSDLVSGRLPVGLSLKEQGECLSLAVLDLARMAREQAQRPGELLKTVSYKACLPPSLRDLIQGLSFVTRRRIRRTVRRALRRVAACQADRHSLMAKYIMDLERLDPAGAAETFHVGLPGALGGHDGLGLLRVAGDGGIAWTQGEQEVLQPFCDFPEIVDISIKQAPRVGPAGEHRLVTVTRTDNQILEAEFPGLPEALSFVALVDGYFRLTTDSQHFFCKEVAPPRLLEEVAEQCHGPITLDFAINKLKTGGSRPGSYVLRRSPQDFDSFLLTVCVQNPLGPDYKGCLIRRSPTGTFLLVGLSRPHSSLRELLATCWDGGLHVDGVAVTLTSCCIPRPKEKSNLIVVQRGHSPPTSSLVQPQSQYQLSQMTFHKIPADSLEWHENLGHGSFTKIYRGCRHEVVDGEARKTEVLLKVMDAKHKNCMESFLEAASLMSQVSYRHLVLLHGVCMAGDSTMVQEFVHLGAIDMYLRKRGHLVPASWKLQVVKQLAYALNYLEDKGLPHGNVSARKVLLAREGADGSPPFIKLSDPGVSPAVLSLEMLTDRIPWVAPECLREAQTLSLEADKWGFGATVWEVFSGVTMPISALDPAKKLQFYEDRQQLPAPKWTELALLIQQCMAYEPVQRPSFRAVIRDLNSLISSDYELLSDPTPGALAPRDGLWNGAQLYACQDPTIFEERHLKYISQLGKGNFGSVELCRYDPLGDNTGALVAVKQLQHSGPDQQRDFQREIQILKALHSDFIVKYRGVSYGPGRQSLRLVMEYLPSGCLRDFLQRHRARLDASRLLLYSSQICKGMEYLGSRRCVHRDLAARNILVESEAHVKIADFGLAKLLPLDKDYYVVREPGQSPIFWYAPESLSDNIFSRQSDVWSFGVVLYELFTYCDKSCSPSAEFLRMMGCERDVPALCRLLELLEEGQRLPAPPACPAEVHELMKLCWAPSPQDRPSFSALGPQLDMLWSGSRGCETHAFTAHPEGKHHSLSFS
Procedure, shortened: as §1

Chain of JAK1 (P23458 whole entry): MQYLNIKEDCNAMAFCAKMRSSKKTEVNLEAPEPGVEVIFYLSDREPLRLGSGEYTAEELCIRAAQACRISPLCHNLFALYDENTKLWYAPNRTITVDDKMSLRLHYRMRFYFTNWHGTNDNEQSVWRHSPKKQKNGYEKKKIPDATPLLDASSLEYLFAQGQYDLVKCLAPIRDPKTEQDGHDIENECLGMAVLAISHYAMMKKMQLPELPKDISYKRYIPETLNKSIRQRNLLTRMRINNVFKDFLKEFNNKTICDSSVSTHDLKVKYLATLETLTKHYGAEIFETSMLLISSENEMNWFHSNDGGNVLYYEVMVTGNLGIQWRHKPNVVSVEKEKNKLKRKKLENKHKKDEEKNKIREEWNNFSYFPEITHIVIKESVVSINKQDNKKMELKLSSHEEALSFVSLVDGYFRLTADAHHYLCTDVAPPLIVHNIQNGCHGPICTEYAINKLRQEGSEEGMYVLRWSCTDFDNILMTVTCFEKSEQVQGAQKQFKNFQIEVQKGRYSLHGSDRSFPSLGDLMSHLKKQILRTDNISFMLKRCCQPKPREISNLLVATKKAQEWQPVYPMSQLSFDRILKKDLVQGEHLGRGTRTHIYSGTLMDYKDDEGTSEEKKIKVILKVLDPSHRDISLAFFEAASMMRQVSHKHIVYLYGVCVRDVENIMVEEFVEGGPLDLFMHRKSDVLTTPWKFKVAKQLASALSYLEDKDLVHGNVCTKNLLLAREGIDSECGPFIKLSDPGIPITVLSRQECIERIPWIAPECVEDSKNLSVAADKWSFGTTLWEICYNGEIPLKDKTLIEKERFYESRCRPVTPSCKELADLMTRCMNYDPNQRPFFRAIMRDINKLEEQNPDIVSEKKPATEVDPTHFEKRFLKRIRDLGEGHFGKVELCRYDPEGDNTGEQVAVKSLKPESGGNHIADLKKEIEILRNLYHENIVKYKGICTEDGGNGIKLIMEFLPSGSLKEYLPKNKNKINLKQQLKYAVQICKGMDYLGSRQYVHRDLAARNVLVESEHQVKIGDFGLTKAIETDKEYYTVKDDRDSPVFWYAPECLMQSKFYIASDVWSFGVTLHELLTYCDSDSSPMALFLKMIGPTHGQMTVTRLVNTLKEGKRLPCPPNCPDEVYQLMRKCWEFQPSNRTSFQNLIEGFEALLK
Chain of CDK7 (P50613 whole entry, species assumed): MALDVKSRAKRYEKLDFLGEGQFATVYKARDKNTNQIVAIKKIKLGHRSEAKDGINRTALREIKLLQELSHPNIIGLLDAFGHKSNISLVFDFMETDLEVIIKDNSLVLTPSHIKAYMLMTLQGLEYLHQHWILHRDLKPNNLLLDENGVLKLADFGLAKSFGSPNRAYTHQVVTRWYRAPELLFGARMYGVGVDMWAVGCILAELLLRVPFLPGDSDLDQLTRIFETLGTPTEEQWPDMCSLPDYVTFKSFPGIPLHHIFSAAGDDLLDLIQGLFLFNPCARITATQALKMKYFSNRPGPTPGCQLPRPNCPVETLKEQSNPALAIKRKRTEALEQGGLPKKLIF
Chain of CDK7 (P51946 whole entry partner, species assumed): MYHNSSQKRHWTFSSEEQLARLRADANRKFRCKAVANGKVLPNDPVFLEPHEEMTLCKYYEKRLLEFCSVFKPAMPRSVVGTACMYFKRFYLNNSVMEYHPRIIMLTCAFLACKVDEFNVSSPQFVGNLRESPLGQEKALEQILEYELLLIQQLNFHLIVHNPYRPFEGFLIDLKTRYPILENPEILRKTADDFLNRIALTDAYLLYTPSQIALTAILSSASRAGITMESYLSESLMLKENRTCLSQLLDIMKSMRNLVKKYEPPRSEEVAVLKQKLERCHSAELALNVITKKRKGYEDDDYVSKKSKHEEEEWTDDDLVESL
Chain of CDK7 (P51948 whole entry partner, species assumed): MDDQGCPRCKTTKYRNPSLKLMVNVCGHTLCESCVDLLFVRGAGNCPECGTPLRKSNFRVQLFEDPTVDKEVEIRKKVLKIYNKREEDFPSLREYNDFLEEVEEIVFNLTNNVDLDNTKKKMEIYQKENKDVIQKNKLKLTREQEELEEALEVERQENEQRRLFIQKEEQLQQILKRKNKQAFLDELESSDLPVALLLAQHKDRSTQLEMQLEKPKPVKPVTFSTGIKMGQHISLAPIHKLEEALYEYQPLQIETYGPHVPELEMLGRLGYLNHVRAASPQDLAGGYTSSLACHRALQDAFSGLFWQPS
Chain of JAK2 (O60674 whole entry): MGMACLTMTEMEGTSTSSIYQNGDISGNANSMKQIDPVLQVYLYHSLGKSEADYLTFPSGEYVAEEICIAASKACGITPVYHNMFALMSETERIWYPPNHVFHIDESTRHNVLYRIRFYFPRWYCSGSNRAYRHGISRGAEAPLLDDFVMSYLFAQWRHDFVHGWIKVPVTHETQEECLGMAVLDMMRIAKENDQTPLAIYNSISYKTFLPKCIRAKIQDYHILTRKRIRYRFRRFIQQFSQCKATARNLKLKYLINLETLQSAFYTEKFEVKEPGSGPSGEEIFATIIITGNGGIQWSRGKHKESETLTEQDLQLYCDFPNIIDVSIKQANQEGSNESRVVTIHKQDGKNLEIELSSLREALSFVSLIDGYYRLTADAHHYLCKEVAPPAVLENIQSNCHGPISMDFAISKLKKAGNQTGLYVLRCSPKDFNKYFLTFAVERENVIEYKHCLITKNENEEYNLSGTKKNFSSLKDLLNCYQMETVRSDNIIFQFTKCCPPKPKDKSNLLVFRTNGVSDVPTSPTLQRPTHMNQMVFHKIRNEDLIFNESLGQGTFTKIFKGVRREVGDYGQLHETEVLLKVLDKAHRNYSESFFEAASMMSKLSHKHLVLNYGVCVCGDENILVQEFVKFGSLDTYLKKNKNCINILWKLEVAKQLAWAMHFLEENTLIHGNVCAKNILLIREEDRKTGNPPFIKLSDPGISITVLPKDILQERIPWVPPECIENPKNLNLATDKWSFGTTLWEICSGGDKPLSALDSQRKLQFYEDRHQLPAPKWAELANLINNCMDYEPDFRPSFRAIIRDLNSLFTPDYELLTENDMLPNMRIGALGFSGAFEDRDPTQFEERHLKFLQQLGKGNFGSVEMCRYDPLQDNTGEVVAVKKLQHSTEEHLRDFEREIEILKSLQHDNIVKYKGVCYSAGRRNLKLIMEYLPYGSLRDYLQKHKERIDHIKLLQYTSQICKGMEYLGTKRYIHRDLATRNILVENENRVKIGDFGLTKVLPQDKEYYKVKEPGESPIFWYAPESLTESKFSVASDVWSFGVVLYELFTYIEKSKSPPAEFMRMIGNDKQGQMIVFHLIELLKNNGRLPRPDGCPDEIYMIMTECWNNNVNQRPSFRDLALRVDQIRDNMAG
Chain of TYK2 (P29597 whole entry): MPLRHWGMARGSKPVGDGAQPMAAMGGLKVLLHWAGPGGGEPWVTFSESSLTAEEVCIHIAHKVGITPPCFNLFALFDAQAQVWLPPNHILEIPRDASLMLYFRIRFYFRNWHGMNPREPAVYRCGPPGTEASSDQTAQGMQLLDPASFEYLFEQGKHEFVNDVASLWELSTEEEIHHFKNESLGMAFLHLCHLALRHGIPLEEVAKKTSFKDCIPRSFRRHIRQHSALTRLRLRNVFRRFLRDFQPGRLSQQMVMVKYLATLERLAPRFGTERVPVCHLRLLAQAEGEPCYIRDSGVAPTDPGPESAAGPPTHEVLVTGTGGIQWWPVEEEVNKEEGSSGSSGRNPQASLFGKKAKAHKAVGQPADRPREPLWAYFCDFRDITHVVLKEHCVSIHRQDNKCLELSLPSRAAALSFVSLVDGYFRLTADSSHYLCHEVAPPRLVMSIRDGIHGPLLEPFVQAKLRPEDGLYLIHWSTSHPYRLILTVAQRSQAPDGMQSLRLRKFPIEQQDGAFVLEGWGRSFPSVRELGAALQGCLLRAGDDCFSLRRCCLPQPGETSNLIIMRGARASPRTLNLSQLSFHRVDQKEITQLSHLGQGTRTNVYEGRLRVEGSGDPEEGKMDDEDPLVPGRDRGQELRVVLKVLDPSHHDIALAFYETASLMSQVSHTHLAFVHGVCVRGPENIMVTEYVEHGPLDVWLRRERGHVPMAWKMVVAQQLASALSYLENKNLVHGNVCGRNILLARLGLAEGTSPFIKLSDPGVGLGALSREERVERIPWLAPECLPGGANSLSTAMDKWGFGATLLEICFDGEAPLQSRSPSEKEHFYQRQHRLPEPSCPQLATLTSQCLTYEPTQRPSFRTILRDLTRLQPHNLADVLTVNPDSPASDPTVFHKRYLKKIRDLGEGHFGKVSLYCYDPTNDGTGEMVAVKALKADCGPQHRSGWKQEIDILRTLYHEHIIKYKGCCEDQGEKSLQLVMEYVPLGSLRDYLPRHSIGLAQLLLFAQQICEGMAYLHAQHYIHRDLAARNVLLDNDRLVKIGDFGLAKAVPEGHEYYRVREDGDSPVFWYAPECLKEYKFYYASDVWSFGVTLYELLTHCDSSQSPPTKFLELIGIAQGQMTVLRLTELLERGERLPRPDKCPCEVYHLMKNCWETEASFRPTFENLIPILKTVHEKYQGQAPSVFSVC

| inhibition at 0.1 µM (JAK1) | inhibition at 0.1 µM (TYK2) | inhibition at 0.01 µM (JAK2) | inhibition at 0.1 µM (JAK2) | inhibition at 0.1 µM (CDK9) | inhibition at 0.01 µM (CDK7) | inhibition at 0.1 µM (CDK7) | inhibition at 0.01 µM (LRRK2) | inhibition at 0.1 µM (LRRK2) | IC50 (LRRK2; kinase activity assay, Table 3) | inhibition at 0.01 µM (JAK3) | inhibition at 0.1 µM (JAK3) | inhibition at 0.01 µM (JAK1; at 10 nM) | inhibition at 0.01 µM (TYK2; at 10 nM) | Structure (SMILES) |
| --- | --- | --- | --- | --- | --- | --- | --- | --- | --- | --- | --- | --- | --- | --- |
| 25 to 39% | > 80% | > 80% | > 80% | 40 to 79% | 40 to 79% | > 80% | > 80% | > 80% | < 0.05 µM | 40 to 79% | > 80% | – | – | CC(C)S(=O)(=O)c1ccccc1Nc1nc(Nc2ccc3c(c2)OCCOCCN(C)CCO3)nc2[nH]ccc12 [Example 10, N^4-(2-(isopropylsulfonyl)phenyl)-N^2-(7-methyl-2,3,6,7,8,9-hexahydro-5H-benzo[b][1,4, 7]trioxa[10]azacyclododecan-13-yl)-7H-pyrrolo[2,3-d]pyrimidin-2,4-diamine] |
| 25 to 39% | 40 to 79% | 40 to 79% | > 80% | 40 to 79% | – | 40 to 79% | – | 25 to 39% | – | 25 to 39% | > 80% | – | – | CN1CCOCCOc2cc(Nc3ncc(F)c(Nc4ccc5[nH]ccc5c4)n3)ccc2OCC1 [Example 30, 5-fluoro-N^4-(1H-indol-5-yl)-N^2-(7-methyl-2,3,6,7,8,9-hexahydro-5H-benzo[b][1,4,7]trioxa[10]azacyclododecan-13-yl)pyrimidin-2,4-diamine] |
| – | 40 to 79% | 40 to 79% | > 80% | 40 to 79% | > 80% | > 80% | 40 to 79% | > 80% | – | 40 to 79% | > 80% | – | – | CC(C)S(=O)(=O)c1ccccc1Nc1nc(Nc2ccc3c(c2)OCCOCCN(C)CCO3)nc2[nH]cnc12 [Example 60, N^6-(2-(isopropylsulfonyl)phenyl)-N^2-(7-methyl-2,3,6,7,8,9-hexahydro-5H-benzo[b][1,4,7]trioxa[10]azacyclododecan-13-yl)-9H-purin-2,6-diamine] |
| 40 to 79% | > 80% | 40 to 79% | > 80% | 25 to 39% | 40 to 79% | > 80% | – | > 80% | – | 40 to 79% | > 80% | 25 to 39% | 25 to 39% | CC(C)S(=O)(=O)c1ccccc1Nc1nc(Nc2ccc3c(c2)OCCOCCN(S(C)(=O)=O)CCO3)nc2[nH]ccc12 [Example 99, N^4-(2-(isopropylsulfonyl)phenyl)-N^2-(7-(methylsulfonyl)-2,3,6,7,8,9-hexahydro-5H-benzo[b][1,4,7]trioxa[10]azacyclododecan-13-yl)-7H-pyrrolo[2,3-d]pyrimidin-2,4-diamine] |
